Residue numbers refer to the chain shown, from its start. Names may count otherwise.
Assays:
[1] = tested on: BaF3-CRLF2 Phe232Cys cells; assay: Toxicity of agents with activity against PKC family kinases in BaF3 cells; type: cell-based, murine
[2] = tested on: BaF3 cells expressing CRLF2 Phe232Cys; assay: Viability of BaF3 cells exposed to JAK inhibitor-1 for 72 hours, relative to vehicle; type: cell-based, murine; settings: no cytokines, FIG. 5
Method: (§1) FIG. 5 is a graph depicting signal activation and dependence on JAK signaling. BaF3 cells that stably express BCR/ABL, CRLF2 and/or JAK2 were grown in the absence of cytokines. +IL3 indicates unmodified BaF3 cells grown in the presence of 500 pg/mL IL-3. Data represents the ratio of viable cells exposed to JAK inhibitor-1 (Calbiochem) at varying concentrations for 72 hours, compared to the same cell line exposed to vehicle. Error bars indicate one standard deviation.
(§2) As expected, TSLP had no effect on STAT5, ERK or JAK2 phosphorylation in cells with mutant CRLF2 or JAK2 proteins.

[3] = tested on: BaF3 cells expressing CRLF2/mutant JAK2; assay: as above; type: cell-based, murine; settings: BaF3 CRLF2/mutant JAK2, no cytokines, FIG. 5
Method: as §1, §2

[4] = tested on: BaF3 cells that express CRLF2/mutant JAK2; assay: In vitro cell growth in the absence of IL-3 with TSLP added; type: cell-based, murine
Method: (§3) FIG. 3 is a group of four graphs depicting in vitro cell growth of UT7 cells and BaF cells that stably express CRLF2 and/or JAK2 alleles grown in the absence of GM-CSF (UT7) or IL-3 (BaF3). For the bottom right panel, TSLP 1 ng/mL was added at day 0, as indicated. Growth is the number of viable cells relative to the number of cells initially seeded on day 0. Error bars represent one standard deviation.
(§4) Unlike cells that express CRLF2/IL-7R, the addition of TSLP had no effect on the growth of BaF3 cells expressing CRLF2 Phe232Cys (FIG. 3).

[5] = tested on: BaF3 cells that express CRLF2 Phe232Cys/IL-7R; assay: as above; type: cell-based, murine; settings: BaF3 CRLF2 Phe232Cys/IL-7R, TSLP 1 ng/mL added at day 0, FIG. 3
Method: as §3, §4

[6] = tested on: BaF3 cells expressing CRLF2 Phe232Cys; assay: as above; type: cell-based, murine; settings: TSLP 1 ng/mL added at day 0, FIG. 3
Method: as §3, §4

[7] = tested on: phospho-JAK2 in CRLF2/IL-7R cells; assay: Phospho-JAK2 in CRLF2/IL-7R cells treated with TSLP; type: cell-based, murine
From the text: as §2

[8] = tested on: STAT5, ERK or JAK2 phosphorylation in cells with mutant CRLF2 or JAK2 proteins; assay: Phosphorylation of STAT5, ERK and JAK2 in BaF3 cells treated with TSLP; type: cell-based, murine
From the text: In BaF3 cells, both CRLF2 Phe232Cys and CRLF2/mutant JAK2 promoted the phosphorylation of the JAK targets STAT5 and ERK.
as §2

[9] = target: the molecule itself; assay: immunoblot of BaF3 cells under reducing and non-reducing conditions (homodimer)
Method: (§5) The CRLF2 Phe232 residue is near the junction of the extracellular and transmembrane domains. Mutations that introduce cysteine residues in this region of other receptor tyrosine kinases, such as RET, can activate signal transduction through intermolecular disulfide-bonded dimers. To confirm that CRLF2 Phe232Cys promotes constitutive dimerization, immunoblots in BaF3 cells expressing wild-type CRLF2 or CRLF2 Phe232Cys were performed under both reducing and non-reducing conditions. Under non-reducing conditions, the molecular weight of the CRLF2 Phe232Cys band, but not the wild-type band, was doubled, consistent with constitutive dimerization through the cysteine residues.

[10] = target: the molecule itself; assay: immunoblot of BaF3 cells under reducing and non-reducing conditions (self-association)
Method: as §5

Cn1c2ccccc2c2c3c(c4c5ccccc5n(CCC#N)c4c21)CNC3=O [Go6976]
toxicity in BaF3-CRLF2 Phe232Cys cells as compared to BaF3 cells expressing wild-type CRLF2 [1]: selective toxicity

CO[C@@H]1[C@H](N(C)C(=O)c2ccccc2)C[C@H]2O[C@]1(C)n1c3ccccc3c3c4c(c5c6ccccc6n2c5c31)C(=O)NC4 [PKC412]
toxicity in BaF3-CRLF2 Phe232Cys cells as compared to BaF3 cells expressing wild-type CRLF2 [1]: selective toxicity

CN[C@@H]1C[C@H]2O[C@@](C)([C@@H]1OC)n1c3ccccc3c3c4c(c5c6ccccc6n2c5c31)C(=O)N[C@@H]4O [UCN-01]
toxicity in BaF3-CRLF2 Phe232Cys cells as compared to BaF3 cells expressing wild-type CRLF2 [1]: selective toxicity

COC(=O)[C@@]1(O)C[C@H]2O[C@]1(C)n1c3ccccc3c3c4c(c5c6ccccc6n2c5c31)C(=O)NC4 [k252a]
toxicity in BaF3-CRLF2 Phe232Cys cells as compared to BaF3 cells expressing wild-type CRLF2 [1]: selective toxicity

CC(C)(C)c1nc2c3cc[nH]c(=O)c3c3cc(F)ccc3c2[nH]1 [small molecule JAK inhibitor]
sensitivity of cells to JAK inhibitor (ratio of viable cells versus vehicle) [2]: highly sensitive | sensitivity of cells to JAK inhibitor (ratio of viable cells versus vehicle) [3]: highly sensitive

TSLP: thymic stromal lymphopoietin, cytokine ligand of the CRLF2/IL-7R heterodimer
effect of TSLP on cell growth [4]: did not promote the growth | effect of TSLP on cell growth [5]: promoted the growth | effect of TSLP on cell growth [6]: no effect | phospho-JAK2 after TSLP treatment [7]: no detectable phospho-JAK2 | effect of TSLP on STAT5, ERK or JAK2 phosphorylation [8]: no effect

B1: CRLF2 Phe232Cys (F232C mutant of human CRLF2) (receptor)
chain: QGGAAEGVQIQIIYFNLETVQVTWNASKYSRTNLTFHYRFNGDEAYDQCTNYLLQEGHTSGCLLDAEQRDDILYFSIRNGTHPVFTASRWMVYYLKPSSPKHVRFSWHQDAVTVTCSDLSYGDLLYEVQYRSPFDTEWQSKQENTCNVTIEGLDAEKCYSFWVRVKAMEDVYGPDTYPSDWSEVTCWQRGEIRDACAETPTPPKPKLSKCILISSLAILLMVSLLLLSLWKLWRVKKFLIPSVPDPKSIFPGLFEIHQGNFQEWITDTQNVAHLHKMAGAEQESGPEEPLVVQLAKTEAESPRMLDPQTEEKEASGGSLQLPHQPLQGGDVVTIGGFTFVMNDRSYVAL
notes: Expressed in BaF3 cells; also called CRLF2 F232C; CRLF2 711T>G
binding result [9]: binds

B2: wild-type human cytokine receptor-like factor 2 (CRLF2) (receptor)
chain: B1 chain with C210F
notes: Expressed by retrovirus in BaF3 cells and detected by immunoblot of the cells; also called wt CRLF2; CRL2
binding result [10]: no binding

From patent US20120282258A1, “CRLF2 IN PRECURSOR B-CELL ACUTE LYMPHOBLASTIC LEUKEMIA” (DANA-FARBER CANCER INSTITUTE, INC., priority 2009, published 2012)
